Laboratory results: patent US10765114B2, “4-amino-6-(pyridyl and 2-substitutedphenyl)-picolinates and 6-amino-2-(pyridyl and 2-substitutedphenyl)-pyrimidine-4-carboxylates and their use as herbicides” (Dow AgroSciences LLC, priority 2013, dated 2020)

Test system: Key Grass and Sedge Weeds as well as Grass Crops
Assay: Post-Emergent Test II (Table 6)
Type: in vivo
Conditions: post-emergence, 336 h, CYPSS, 140 g ai/ha, 14 days after application, read-out: Visual Growth Reduction (%) 14 Days After Application CYPSS
How it was run: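 Visual injury ratings (0 = no injury, 100 = complete kill) taken 14 days after treatment, relative to untreated controls. Compounds, in an acetone/DMSO aqueous carrier with crop oil and surfactant, were applied by track sprayer at 187 L/ha, in a twofold dilution series from the top rate, to plants at the first to second true-leaf stage.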

SMILES	pest or weed control at 140 g/ha [%]
COC(=O)c1nc(-c2ccc(C(F)(F)F)nc2)c(Cl)c(N)c1Cl [Compound 83]	45 to 59

Same assay, conditions: post-emergence, 336 h, DIGSA: crabgrass (Digitaria sanguinalis), 70 g ai/ha, 14 days after application, read-out: Visual Growth Reduction (%) 14 Days After Application DIGSA

SMILES	pest or weed control at 70 g/ha [%]
COC(=O)c1nc(-c2ccc(C(F)(F)F)nc2)c(Cl)c(N)c1Cl [Compound 83]	60 to 74

Same assay, conditions: post-emergence, 336 h, DIGSA: crabgrass (Digitaria sanguinalis), 140 g ai/ha, 14 days after application, read-out: Visual Growth Reduction (%) 14 Days After Application DIGSA

SMILES	pest or weed control at 140 g/ha [%]
COC(=O)c1nc(-c2ccc(C(F)(F)F)nc2)c(Cl)c(N)c1Cl [Compound 83]	75 to 84

Same assay, conditions: post-emergence, 336 h, ECHSS, 70 g ai/ha, 14 days after application, read-out: Visual Growth Reduction (%) 14 Days After Application ECHSS

SMILES	pest or weed control at 70 g/ha [%]
COC(=O)c1nc(-c2ccc(C(F)(F)F)nc2)c(Cl)c(N)c1Cl [Compound 83]	60 to 74

Same assay, conditions: post-emergence, 336 h, ECHSS, 140 g ai/ha, 14 days after application, read-out: Visual Growth Reduction (%) 14 Days After Application ECHSS

SMILES	pest or weed control at 140 g/ha [%]
COC(=O)c1nc(-c2ccc(C(F)(F)F)nc2)c(Cl)c(N)c1Cl [Compound 83]	75 to 84

Same assay, conditions: post-emergence, 336 h, ORYSS (crop), 70 g ai/ha, 14 days after application, read-out: Visual Growth Reduction (%) 14 Days After Application ORYSS

SMILES	pest or weed control at 70 g/ha [%]
COC(=O)c1nc(-c2ccc(C(F)(F)F)nc2)c(Cl)c(N)c1Cl [Compound 83]	0 to 29

Same assay, conditions: post-emergence, 336 h, ORYSS (crop), 140 g ai/ha, 14 days after application, read-out: Visual Growth Reduction (%) 14 Days After Application ORYSS

SMILES	pest or weed control at 140 g/ha [%]
COC(=O)c1nc(-c2ccc(C(F)(F)F)nc2)c(Cl)c(N)c1Cl [Compound 83]	0 to 29

Same assay, conditions: post-emergence, 336 h, SETFA: giant foxtail (Setaria faberi), 70 g ai/ha, 14 days after application, read-out: Visual Growth Reduction (%) 14 Days After Application SETFA

SMILES	pest or weed control at 70 g/ha [%]
COC(=O)c1nc(-c2ccc(C(F)(F)F)nc2)c(Cl)c(N)c1Cl [Compound 83]	75 to 84

Same assay, conditions: post-emergence, 336 h, SETFA: giant foxtail (Setaria faberi), 140 g ai/ha, 14 days after application, read-out: Visual Growth Reduction (%) 14 Days After Application SETFA

SMILES	pest or weed control at 140 g/ha [%]
COC(=O)c1nc(-c2ccc(C(F)(F)F)nc2)c(Cl)c(N)c1Cl [Compound 83]	75 to 84

Same assay, conditions: post-emergence, 336 h, SORVU: grain sorghum (Sorghum vulgare), 70 g ai/ha, 14 days after application, read-out: Visual Growth Reduction (%) 14 Days After Application SORVU

SMILES	pest or weed control at 70 g/ha [%]
COC(=O)c1nc(-c2ccc(C(F)(F)F)nc2)c(Cl)c(N)c1Cl [Compound 83]	75 to 84

Same assay, conditions: post-emergence, 336 h, SORVU: grain sorghum (Sorghum vulgare), 140 g ai/ha, 14 days after application, read-out: Visual Growth Reduction (%) 14 Days After Application SORVU

SMILES	pest or weed control at 140 g/ha [%]
COC(=O)c1nc(-c2ccc(C(F)(F)F)nc2)c(Cl)c(N)c1Cl [Compound 83]	75 to 84

Same assay, conditions: post-emergence, 336 h, TRZSS (crop), 70 g ai/ha, 14 days after application, read-out: Visual Growth Reduction (%) 14 Days After Application TRZSS

SMILES	pest or weed control at 70 g/ha [%]
COC(=O)c1nc(-c2ccc(C(F)(F)F)nc2)c(Cl)c(N)c1Cl [Compound 83]	45 to 59

Same assay, conditions: post-emergence, 336 h, TRZSS (crop), 140 g ai/ha, 14 days after application, read-out: Visual Growth Reduction (%) 14 Days After Application TRZSS

SMILES	pest or weed control at 140 g/ha [%]
COC(=O)c1nc(-c2ccc(C(F)(F)F)nc2)c(Cl)c(N)c1Cl [Compound 83]	60 to 74

Same assay, conditions: post-emergence, 336 h, ZEAMX: maize, corn (Zea mays), 70 g ai/ha, 14 days after application, read-out: Visual Growth Reduction (%) 14 Days After Application ZEAMX

SMILES	pest or weed control at 70 g/ha [%]
COC(=O)c1nc(-c2ccc(C(F)(F)F)nc2)c(Cl)c(N)c1Cl [Compound 83]	75 to 84

Same assay, conditions: post-emergence, 336 h, ZEAMX: maize, corn (Zea mays), 140 g ai/ha, 14 days after application, read-out: Visual Growth Reduction (%) 14 Days After Application ZEAMX

SMILES	pest or weed control at 140 g/ha [%]
COC(=O)c1nc(-c2ccc(C(F)(F)F)nc2)c(Cl)c(N)c1Cl [Compound 83]	75 to 84

Test system: not given
Assay: not given
Conditions: not given

melting point [°C]	SMILES
148 to 150	COC(=O)c1nc(-c2ccc(C(F)(F)F)nc2)c(Cl)c(N)c1Cl [Compound 83]
